The values below come from US9603364B2 (Dow AgroSciences LLC, priority 2013, dated 2017).

What all share (assay): General post-emergent herbicidal activity, foliar application
Type in all cases: in vivo

The test system of assay [1] is Zea mays L. (corn). The note with it: 336 h, scored after 14 days, read-out: % Visual Growth Reduction ZEAMX; for plant injury at 140 g/ha: 140 g ai/ha; for plant injury at 280 g/ha: 280 g ai/ha; for plant injury at 70 g/ha: 70 g ai/ha. A digest of the protocol:
(§1)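 Injury rated visually 14 days after treatment on a 0 (none) to 100% (complete kill) scale against untreated plants; greenhouse-grown, sub-irrigated to avoid wash-off. Foliar spray in aqueous acetone/DMSO with isopropanol, crop oil concentrate and Triton X-155, at a highest rate and 2-fold serial dilutions down to 1/16×.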

For assay [2], the system named is Oryza sativa L. (rice). The settings on record: Oryza sativa, 336 h, scored after 14 days, read-out: % Visual Growth Reduction ORYSA; for plant injury at 140 g/ha: 140 g ai/ha; for plant injury at 280 g/ha: 280 g ai/ha; for plant injury at 70 g/ha: 70 g ai/ha. The method, boiled down:
as §1

Assay [3] deals with Chenopodium album L. (lambsquarters, common). The settings on record: for pest or weed control at 140 g/ha: 140 g ai/ha; for pest or weed control at 280 g/ha: 280 g ai/ha; for pest or weed control at 70 g/ha: 70 g ai/ha; for GR80 Value CHEAL: calculated by probit analysis, dose for 80% visual injury, may be extrapolated. A digest of the protocol: (§2)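 Compounds in acetone/DMSO 97:3 were diluted into aqueous spray mix with isopropanol, crop oil concentrate and Triton X-155, then serially diluted to 1/2×–1/16× of the top rate and sprayed on foliage. Plants were kept in greenhouse with sub-irrigation. Injury was scored visually (0–100%) at 14 days; GR20/GR50/GR80 came from probit analysis.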

The test system of assay [4] is Amaranthus retroflexus L. (pigweed, redroot). The settings on record: for pest or weed control at 140 g/ha: 140 g ai/ha; for pest or weed control at 280 g/ha: 280 g ai/ha; for pest or weed control at 70 g/ha: 70 g ai/ha; for GR80 Value AMARE: calculated by probit analysis, dose for 80% visual injury, may be extrapolated. The method, boiled down: as §2
In assay [5] the test system is Viola tricolor L. (pansy). The note with it: for pest or weed control at 140 g/ha: 140 g ai/ha; for pest or weed control at 280 g/ha: 280 g ai/ha; for pest or weed control at 70 g/ha: 70 g ai/ha; for GR80 Value VIOTR: calculated by probit analysis, dose for 80% visual injury, may be extrapolated. The method, boiled down: as §2
Assay [6] concerns Echinochloa crus-galli (L.) Beauv. (barnyardgrass). The settings on record: for pest or weed control at 140 g/ha: 140 g ai/ha; for pest or weed control at 280 g/ha: 280 g ai/ha; for pest or weed control at 70 g/ha: 70 g ai/ha; for GR80 Value ECHCG: calculated by probit analysis, dose for 80% visual injury, may be extrapolated. A digest of the protocol:
as §2

For assay [7], the system named is Helianthus annuus L. (sunflower, common). The note with it: for pest or weed control at 140 g/ha: 140 g ai/ha; for pest or weed control at 280 g/ha: 280 g ai/ha; for pest or weed control at 70 g/ha: 70 g ai/ha; for GR80 Value HELAN: calculated by probit analysis, dose for 80% visual injury, may be extrapolated. The method, boiled down: as §2
Assay [8] concerns Euphorbia heterophylla L. (poinsettia, wild). The settings on record: for pest or weed control at 140 g/ha: 140 g ai/ha; for pest or weed control at 280 g/ha: 280 g ai/ha; for pest or weed control at 70 g/ha: 70 g ai/ha; for GR80 Value EPHHL: calculated by probit analysis, dose for 80% visual injury, may be extrapolated. The method, boiled down:
as §2

Setting [9] is: Chenopodium album, 336 h, foliar post-emergent, scored after 14 days, read-out: % Visual Growth Reduction CHEAL.
Where [10] appears, read: Amaranthus retroflexus, 336 h, foliar post-emergent, scored after 14 days, read-out: % Visual Growth Reduction AMARE.
Where [11] appears, read: Viola tricolor, 336 h, foliar post-emergent, scored after 14 days, read-out: % Visual Growth Reduction VIOTR.
Where [12] appears, read: Echinochloa crus-galli, 336 h, foliar post-emergent, scored after 14 days, read-out: % Visual Growth Reduction ECHCG.
The mark [13] stands for this setting: Helianthus annuus, 336 h, foliar post-emergent, scored after 14 days, read-out: % Visual Growth Reduction HELAN.
[14] abbreviates: Euphorbia heterophylla, 336 h, foliar post-emergent, scored after 14 days, read-out: % Visual Growth Reduction EPHHL.

Where only a bound is given, the exact number is not on record here.

Take `C=C(F)c1nc(C(=O)OC)c(Cl)c(N)c1F` [Compound F22, methyl 4-amino-3-chloro-5-fluoro-6-(1-fluorovinyl)picolinate]: the plant injury at 140 g/ha in assay [1] and in assay [2] was 0% each time. For the same compound, the plant injury at 280 g/ha in assay [1] and in assay [2] was 0% each time. Further, the pest or weed control at 140 g/ha amounted to 90% in assay [3] (setting [9]); 90% in assay [4] (setting [10]); 10% in assay [5] (setting [11]); 0% in assay [6] (setting [12]); 80% in assay [7] (setting [13]); 50% in assay [8] (setting [14]). Moreover, the pest or weed control at 280 g/ha in assay [3] (setting [9]) turned out to be 90%; in assay [4] (setting [10]), 90%; in assay [5] (setting [11]), 10%; in assay [6] (setting [12]) it was 0%; in assay [7] (setting [13]), 80%; in assay [8] (setting [14]), 60%.
As to `COC(=O)c1nc(CCl)c(F)c(N)c1Cl` [Compound F21, Methyl 4-amino-3-chloro-6-(chloromethyl)-5-fluoropicolinate], the plant injury at 280 g/ha in assay [1] and in assay [2] was 0% in each case. The pest or weed control at 280 g/ha in assay [3] (setting [9]), in assay [4] (setting [10]), in assay [5] (setting [11]), in assay [6] (setting [12]), in assay [7] (setting [13]) and in assay [8] (setting [14]) was 0% in each case.
On to `COC(=O)c1nc(CF)c(Cl)c(N)c1Cl` [Compound F1, Methyl 4-amino-3,5-dichloro-6-(fluoromethyl)picolinate], for which the plant injury at 35 g/ha in assay [1] (35 g ai/ha) and in assay [2] (35 g ai/ha) was 0% throughout. Besides, the plant injury at 70 g/ha in assay [1] and in assay [2] was 0% each time. Besides, the plant injury at 140 g/ha in assay [1] and in assay [2] was 0% in each case. Further, the plant injury at 280 g/ha in assay [1] and in assay [2] was 0% each time. The pest or weed control at 35 g/ha in assay [3] (Chenopodium album, 336 h, 35 g ai/ha, foliar post-emergent, scored after 14 days, read-out: % Visual Growth Reduction CHEAL) was 90%; in assay [4] (Amaranthus retroflexus, 336 h, 35 g ai/ha, foliar post-emergent, scored after 14 days, read-out: % Visual Growth Reduction AMARE), 55%; in assay [5] (Viola tricolor, 336 h, 35 g ai/ha, foliar post-emergent, scored after 14 days, read-out: % Visual Growth Reduction VIOTR), 0%; in assay [6] (Echinochloa crus-galli, 336 h, 35 g ai/ha, foliar post-emergent, scored after 14 days, read-out: % Visual Growth Reduction ECHCG), 0%; in assay [7] (Helianthus annuus, 336 h, 35 g ai/ha, foliar post-emergent, scored after 14 days, read-out: % Visual Growth Reduction HELAN), 100%; in assay [8] (Euphorbia heterophylla, 336 h, 35 g ai/ha, foliar post-emergent, scored after 14 days, read-out: % Visual Growth Reduction EPHHL) it was 100%. The pest or weed control at 70 g/ha in assay [3] (setting [9]) was 90%; in assay [4] (setting [10]), 60%; in assay [5] (setting [11]) it was 0%; in assay [6] (setting [12]), 0%; in assay [7] (setting [13]) it was 100%; in assay [8] (setting [14]), 100%. Further, the pest or weed control at 140 g/ha stood at 90% in assay [3] (setting [9]); 80% in assay [4] (setting [10]); 10% in assay [5] (setting [11]); 0% in assay [6] (setting [12]); 100% in assay [7] (setting [13]); 100% in assay [8] (setting [14]). For the same compound, the pest or weed control at 280 g/ha in assay [3] (setting [9]) was 90%; in assay [4] (setting [10]) it was 90%; in assay [5] (setting [11]), 10%; in assay [6] (setting [12]), 0%; in assay [7] (setting [13]), 100%; in assay [8] (setting [14]) it was 100%. The “GR80 Value CHEAL” value in assay [3] was 17.5 g ai/ha. For the same compound, in assay [4], the “GR80 Value AMARE” value is reported as 142 g ai/ha. In addition, in assay [5], the “GR80 Value VIOTR” value was greater than 280 g ai/ha. The “GR80 Value ECHCG” value in assay [6] was greater than 280 g ai/ha. The “GR80 Value HELAN” value in assay [7] is given as less than 17.5 g ai/ha. Further, the “GR80 Value EPHHL” value in assay [8] is reported as 26.2 g ai/ha.
As to `COC(=O)c1nc(C(F)F)c(F)c(N)c1Cl` [Compound F3, methyl 4-amino-3-chloro-6-(difluoromethyl)-5-fluoropicolinate], the plant injury at 70 g/ha in assay [1] and in assay [2] was 0% in each case. Also, the plant injury at 140 g/ha in assay [1] and in assay [2] was 0% throughout. Besides, the plant injury at 280 g/ha in assay [1] is 10%; in assay [2], 0%. Also, the pest or weed control at 70 g/ha was 100% in assay [3] (setting [9]); 5% in assay [4] (setting [10]); 0% in assay [5] (setting [11]); 0% in assay [6] (setting [12]); 90% in assay [7] (setting [13]); 50% in assay [8] (setting [14]). Also, the pest or weed control at 140 g/ha was determined as 100% in assay [3] (setting [9]); 50% in assay [4] (setting [10]); 5% in assay [5] (setting [11]); 0% in assay [6] (setting [12]); 90% in assay [7] (setting [13]); 75% in assay [8] (setting [14]). Further, the pest or weed control at 280 g/ha in assay [3] (setting [9]) was 100%; in assay [4] (setting [10]), 90%; in assay [5] (setting [11]) it was 10%; in assay [6] (setting [12]), 10%; in assay [7] (setting [13]), 90%; in assay [8] (setting [14]), 85%. Further, the “GR80 Value CHEAL” value in assay [3] is less than 17.5 g ai/ha. The “GR80 Value AMARE” value in assay [4] is given as 112 g ai/ha. Besides, the “GR80 Value VIOTR” value in assay [5] is given as greater than 280 g ai/ha. Moreover, the “GR80 Value ECHCG” value in assay [6] is given as greater than 280 g ai/ha. Also, the “GR80 Value HELAN” value in assay [7] is listed as 32.5 g ai/ha. In addition, the “GR80 Value EPHHL” value in assay [8] is listed as 193 g ai/ha.
